Measured values as given in ChEMBL document CHEMBL5724914, “Linking interpersonal differences in gut microbiota composition and drug biotransformation activity” (2024).

Assays:
[1] = human gut metagenome, 24 h, 2 µM
[2] = (§1) The drug is tested on WLS-098 corresponding to human gut metagenome with ENA study accession number: PRJEB37062 and ENA sample accession number: ERS12561754 for biotransformation under anaerobic condition. The drug concentrations were measured over 9 timepoints collected between 0 and 24 hours of incubation by liquid-chromatography-coupled mass spectrometry (LC–MS); settings: 2 µM
[3] = human gut metagenome, 24 h, 2 µM; remark: listed apart in the source
[4] = human gut metagenome, 24 h, 2 µM; remark: listed apart in the source
[5] = human gut metagenome, 24 h, 2 µM; remark: listed apart in the source
[6] = as §1, with “Z-014” for “WLS-098”, “rat” for “human”, “ERS12561814” for “ERS12561754”; settings: 2 µM
[7] = as §1, with “WLS-006” for “WLS-098”, “ERS12561741” for “ERS12561754”; settings: 2 µM
[8] = human gut metagenome, 24 h, 2 µM; remark: listed apart in the source
[9] = as §1, with “Z-003” for “WLS-098”, “pig” for “human”, “ERS12561803” for “ERS12561754”; settings: 2 µM
[10] = as §1, with “Z-002” for “WLS-098”, “rabbit” for “human”, “ERS12561802” for “ERS12561754”; settings: 2 µM
[11] = as §1, with “Z-019” for “WLS-098”, “rat” for “human”, “ERS12561818” for “ERS12561754”; settings: 2 µM
[12] = as §1, with “Z-009” for “WLS-098”, “pig” for “human”, “ERS12561809” for “ERS12561754”; settings: 2 µM
[13] = human gut metagenome, 24 h, 2 µM; remark: listed apart in the source
[14] = human gut metagenome, 24 h, 2 µM; remark: listed apart in the source
[15] = human gut metagenome, 24 h, 2 µM; remark: listed apart in the source
[16] = human gut metagenome, 24 h, 2 µM; remark: listed apart in the source
[17] = human gut metagenome, 24 h, 2 µM; remark: listed apart in the source
[18] = human gut metagenome, 24 h, 2 µM; remark: listed apart in the source
[19] = human gut metagenome, 24 h, 2 µM; remark: listed apart in the source
[20] = human gut metagenome, 24 h, 2 µM; remark: listed apart in the source
Also: call rule not given here.

Compound: Cc1ccc(-c2nc3ccc(C)cn3c2CC(=O)N(C)C)cc1 [ZOLPIDEM]
- Bacterial Biotransformation [1]: Compound metabolized
- Bacterial Biotransformation [2]: Compound metabolized
- Bacterial Biotransformation [3]: Compound metabolized
- Bacterial Biotransformation [4]: Compound metabolized
- Bacterial Biotransformation [5]: Compound metabolized
- Bacterial Biotransformation [6]: Compound NOT metabolized
- Bacterial Biotransformation [7]: Compound NOT metabolized
- Bacterial Biotransformation [8]: Compound metabolized
- Bacterial Biotransformation [9]: Compound metabolized
- Bacterial Biotransformation [10]: Compound metabolized
- Bacterial Biotransformation [11]: Compound NOT metabolized
- Bacterial Biotransformation [12]: Compound metabolized
- Bacterial Biotransformation [13]: Compound metabolized
- Bacterial Biotransformation [14]: Compound NOT metabolized
- Bacterial Biotransformation [15]: Compound NOT metabolized
- Bacterial Biotransformation [16]: Compound NOT metabolized
- Bacterial Biotransformation [17]: Compound NOT metabolized
- Bacterial Biotransformation [18]: Compound NOT metabolized
- Bacterial Biotransformation [19]: Compound metabolized
- Bacterial Biotransformation [20]: Compound NOT metabolized

Compound: CCC(COC(=O)c1cc(OC)c(OC)c(OC)c1)(c1ccccc1)N(C)C.O=C(O)/C=C\C(=O)O (stereo not given)
- Bacterial Biotransformation [1]: Compound metabolized
- Bacterial Biotransformation [2]: Compound NOT metabolized
- Bacterial Biotransformation [3]: Compound metabolized
- Bacterial Biotransformation [4]: Compound NOT metabolized
- Bacterial Biotransformation [5]: Compound metabolized
- Bacterial Biotransformation [6]: Compound NOT metabolized
- Bacterial Biotransformation [7]: Compound NOT metabolized
- Bacterial Biotransformation [8]: Compound NOT metabolized
- Bacterial Biotransformation [9]: Compound NOT metabolized
- Bacterial Biotransformation [10]: Compound NOT metabolized
- Bacterial Biotransformation [11]: Compound NOT metabolized
- Bacterial Biotransformation [12]: Compound metabolized
- Bacterial Biotransformation [13]: Compound metabolized
- Bacterial Biotransformation [14]: Compound NOT metabolized
- Bacterial Biotransformation [15]: Compound metabolized
- Bacterial Biotransformation [16]: Compound NOT metabolized
- Bacterial Biotransformation [17]: Compound NOT metabolized
- Bacterial Biotransformation [18]: Compound NOT metabolized
- Bacterial Biotransformation [19]: Compound NOT metabolized
- Bacterial Biotransformation [20]: Compound metabolized

Compound: O=c1[nH]c2ccccc2n1C1CCN(CCCC(c2ccc(F)cc2)c2ccc(F)cc2)CC1 [PIMOZIDE]
- Bacterial Biotransformation [1]: Compound metabolized
- Bacterial Biotransformation [2]: Compound metabolized
- Bacterial Biotransformation [3]: Compound metabolized
- Bacterial Biotransformation [4]: Compound metabolized
- Bacterial Biotransformation [5]: Compound metabolized
- Bacterial Biotransformation [6]: Compound NOT metabolized
- Bacterial Biotransformation [7]: Compound metabolized
- Bacterial Biotransformation [8]: Compound metabolized
- Bacterial Biotransformation [9]: Compound metabolized
- Bacterial Biotransformation [10]: Compound NOT metabolized
- Bacterial Biotransformation [11]: Compound NOT metabolized
- Bacterial Biotransformation [12]: Compound metabolized
- Bacterial Biotransformation [13]: Compound metabolized
- Bacterial Biotransformation [14]: Compound NOT metabolized
- Bacterial Biotransformation [15]: Compound metabolized
- Bacterial Biotransformation [16]: Compound NOT metabolized
- Bacterial Biotransformation [17]: Compound metabolized
- Bacterial Biotransformation [18]: Compound metabolized
- Bacterial Biotransformation [19]: Compound metabolized
- Bacterial Biotransformation [20]: Compound metabolized

Compound: Cc1cc2c(cc1S(N)(=O)=O)S(=O)(=O)CCC2
- Bacterial Biotransformation [1]: Compound NOT metabolized
- Bacterial Biotransformation [2]: Compound NOT metabolized
- Bacterial Biotransformation [3]: Compound NOT metabolized
- Bacterial Biotransformation [4]: Compound NOT metabolized
- Bacterial Biotransformation [5]: Compound NOT metabolized
- Bacterial Biotransformation [6]: Compound NOT metabolized
- Bacterial Biotransformation [7]: Compound NOT metabolized
- Bacterial Biotransformation [8]: Compound NOT metabolized
- Bacterial Biotransformation [9]: Compound NOT metabolized
- Bacterial Biotransformation [10]: Compound NOT metabolized
- Bacterial Biotransformation [11]: Compound NOT metabolized
- Bacterial Biotransformation [12]: Compound NOT metabolized
- Bacterial Biotransformation [13]: Compound NOT metabolized
- Bacterial Biotransformation [14]: Compound NOT metabolized
- Bacterial Biotransformation [15]: Compound NOT metabolized
- Bacterial Biotransformation [16]: Compound NOT metabolized
- Bacterial Biotransformation [17]: Compound NOT metabolized
- Bacterial Biotransformation [18]: Compound NOT metabolized
- Bacterial Biotransformation [19]: Compound NOT metabolized
- Bacterial Biotransformation [20]: Compound NOT metabolized

Compound: CC[C@@H](CO)NC(=O)[C@@H]1C=C2c3cccc4c3c(cn4C)C[C@H]2N(C)C1.O=C(O)/C=C\C(=O)O [METHYSERGIDE MALEATE]
- Bacterial Biotransformation [1]: Compound NOT metabolized
- Bacterial Biotransformation [2]: Compound NOT metabolized
- Bacterial Biotransformation [3]: Compound metabolized
- Bacterial Biotransformation [4]: Compound NOT metabolized
- Bacterial Biotransformation [5]: Compound metabolized
- Bacterial Biotransformation [6]: Compound NOT metabolized
- Bacterial Biotransformation [7]: Compound NOT metabolized
- Bacterial Biotransformation [8]: Compound NOT metabolized
- Bacterial Biotransformation [9]: Compound NOT metabolized
- Bacterial Biotransformation [10]: Compound NOT metabolized
- Bacterial Biotransformation [11]: Compound NOT metabolized
- Bacterial Biotransformation [12]: Compound NOT metabolized
- Bacterial Biotransformation [13]: Compound metabolized
- Bacterial Biotransformation [14]: Compound NOT metabolized
- Bacterial Biotransformation [15]: Compound NOT metabolized
- Bacterial Biotransformation [16]: Compound NOT metabolized
- Bacterial Biotransformation [17]: Compound NOT metabolized
- Bacterial Biotransformation [18]: Compound NOT metabolized
- Bacterial Biotransformation [19]: Compound NOT metabolized
- Bacterial Biotransformation [20]: Compound NOT metabolized

Compound: O=C(O)COCCN1CCN(C(c2ccccc2)c2ccc(Cl)cc2)CC1 (stereo not given) [CETIRIZINE]
- Bacterial Biotransformation [1]: Compound metabolized
- Bacterial Biotransformation [2]: Compound metabolized
- Bacterial Biotransformation [3]: Compound metabolized
- Bacterial Biotransformation [4]: Compound metabolized
- Bacterial Biotransformation [5]: Compound metabolized
- Bacterial Biotransformation [6]: Compound NOT metabolized
- Bacterial Biotransformation [7]: Compound metabolized
- Bacterial Biotransformation [8]: Compound metabolized
- Bacterial Biotransformation [9]: Compound metabolized
- Bacterial Biotransformation [10]: Compound metabolized
- Bacterial Biotransformation [11]: Compound NOT metabolized
- Bacterial Biotransformation [12]: Compound metabolized
- Bacterial Biotransformation [13]: Compound metabolized
- Bacterial Biotransformation [14]: Compound metabolized
- Bacterial Biotransformation [15]: Compound metabolized
- Bacterial Biotransformation [16]: Compound metabolized
- Bacterial Biotransformation [17]: Compound metabolized
- Bacterial Biotransformation [18]: Compound metabolized
- Bacterial Biotransformation [19]: Compound metabolized
- Bacterial Biotransformation [20]: Compound metabolized

Compound: CNS(=O)(=O)Cc1ccc2[nH]cc(CCN(C)C)c2c1.O=C(O)CCC(=O)O [SUMATRIPTAN SUCCINATE]
- Bacterial Biotransformation [1]: Compound NOT metabolized
- Bacterial Biotransformation [2]: Compound metabolized
- Bacterial Biotransformation [3]: Compound metabolized
- Bacterial Biotransformation [4]: Compound metabolized
- Bacterial Biotransformation [5]: Compound metabolized
- Bacterial Biotransformation [6]: Compound NOT metabolized
- Bacterial Biotransformation [7]: Compound NOT metabolized
- Bacterial Biotransformation [8]: Compound NOT metabolized
- Bacterial Biotransformation [9]: Compound metabolized
- Bacterial Biotransformation [10]: Compound metabolized
- Bacterial Biotransformation [11]: Compound NOT metabolized
- Bacterial Biotransformation [12]: Compound NOT metabolized
- Bacterial Biotransformation [13]: Compound metabolized
- Bacterial Biotransformation [14]: Compound NOT metabolized
- Bacterial Biotransformation [15]: Compound NOT metabolized
- Bacterial Biotransformation [16]: Compound NOT metabolized
- Bacterial Biotransformation [17]: Compound NOT metabolized
- Bacterial Biotransformation [18]: Compound NOT metabolized
- Bacterial Biotransformation [19]: Compound NOT metabolized
- Bacterial Biotransformation [20]: Compound NOT metabolized
